Reference: ChEMBL document CHEMBL1153923, “Carbonic anhydrase inhibitors. Inhibition of human erythrocyte isozymes I and II with a series of antioxidant phenols” (Bioorg Med Chem, 2009)
pKi: −log10 of the molar value.

Key:
Carbonic anhydrase 1 = Carbonic anhydrase 1 (Homo sapiens, UniProt P00915); test: Inhibition of human erythrocyte CA1 esterase activity using 4-nitrophenyl acetate substrate
Carbonic anhydrase 2 = Carbonic anhydrase 2 (Homo sapiens, UniProt P00918)
Description: Inhibition of human erythrocyte CA2 esterase activity using 4-nitrophenyl acetate substrate

Carbonic anhydrase 1, sequence (P00915 whole entry): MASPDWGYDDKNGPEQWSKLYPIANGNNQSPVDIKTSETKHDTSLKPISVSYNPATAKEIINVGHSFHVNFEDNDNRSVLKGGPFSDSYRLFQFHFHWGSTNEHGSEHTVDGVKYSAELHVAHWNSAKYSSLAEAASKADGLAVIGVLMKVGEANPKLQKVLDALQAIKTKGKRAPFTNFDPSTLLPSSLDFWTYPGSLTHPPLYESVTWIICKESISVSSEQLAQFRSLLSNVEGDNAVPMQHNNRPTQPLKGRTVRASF

SMILES	pKi (Carbonic anhydrase 1)	pKi (Carbonic anhydrase 2)
CC(C)(C)c1cc(-c2cc(C(C)(C)C)c(O)c(C(C)(C)C)c2)cc(C(C)(C)C)c1O	4.43	
CC(C)(C)c1cccc(C(C)(C)C)c1O	3.56	
Cc1cccc(C)c1O	3.70	3.95
Cc1cc(-c2cc(C)c(O)c(C)c2)cc(C)c1O	4.03	5.39
CC(C)c1cc(-c2cc(C(C)C)c(O)c(C(C)C)c2)cc(C(C)C)c1O	4.42	
COc1c(O)cccc1C=O	4.25	
COc1cc(C(C)(C)C)c(O)c(C(C)(C)C)c1	4.20	
Cc1cc(C(C)(C)C)c(O)c(C(C)(C)C)c1 [BUTYLATED HYDROXYTOLUENE]	3.61	6.20
COc1ccccc1O [GUAIACOL]	4.22	5.53
CC(C)c1cccc(C(C)C)c1O [PROPOFOL]	4.00	4.71
